Measurements taken from patent US20160159774A1 (Celgene Avilomics Research, Inc., priority 2014, published 2016).

What was measured:
activated BTK enzyme = target: T1, activated BTK enzyme (Homo sapiens, UniProt Q06187); test: Omnia assay for potency assessment against BTK; assay type: biochemical; conditions: BTK inhibition assay; [BTK]=5 nM, [ATP]=40 μM, [Y5-Sox]=10 μM
T1 construct: purchased Life Technologies PV3363
Text: Omnia Assay Protocol for Potency Assessment Against BTK
The protocol below describes an assay to measure potency of compounds against the activated BTK enzyme. The mechanics of the assay platform are best described by the vendor (Life Technologies, Carlsbad, Calif.) on their website at the following URLs: www.lifetechnologies.com/us/en/home/life-science/drug-discovery/target-and-lead-identification-and-validation/kinasebiology/kinase-activity-assays/omnia-kinase-assays/omnia-kinase-principle.html and tools.lifetechnologies.com/content/sfs/manuals/omnia_kinase_assay_man.pdf
Briefly, 10× stocks of BTK (PV3363) from Life Technologies, 1.13×ATP (AS00lA) and Sox conjugated peptide substrates, Y5-Sox, (KZN305l) were prepared in 1× kinase reaction buffer consisting of 20 mM Tris, pH 7.5, 5 mM MgCl2, 1 mM EGTA, 5 mM (3-glycerophosphate, 5% glycerol (10× stock, KB002A) and 0.2 mM DTT (DS00lA). 5 μL of each enzyme were pre-incubated in a Corning (#3574) 384-well, white, non-binding surface microtiter plate (Corning, N.Y.) for 30 min. at room temperature with a 0.5 μL volume of 50% DMSO or serially diluted compounds prepared in 50% DMSO. Kinase reactions were started with the addition of […] of the ATP/Tyr-Sox peptide substrate Y5 mix and monitored every 71 seconds for 60 minutes at λex360/λem485 in a Synergy4 plate reader from BioTek (Winooski, Vt.). At the conclusion of each assay, progress curves from each well were examined for linear reaction kinetics and fit statistics (R2, 95% confidence interval, absolute sum of squares). Initial velocity (0 minutes to ˜30 minutes) from each reaction was determined from the slope of a plot of relative fluorescence units vs time (minutes) and then plotted against inhibitor concentration to estimate IC50 from log [Inhibitor] vs Response, Variable Slope model in GraphPad Prism from GraphPad Software (San Diego, Calif.).
Reagent conditions for the assay are:
[BTK]=5 nM, [ATP]=40 μM, [Y5-Sox]=10 μM (ATP KMapp˜36 μM).
The compound numbers correspond to the compound numbers in the examples.

[1] = target: T2, BTK in Ramos human Burkitt lymphoma cells (Homo sapiens, UniProt Q06187); test: BTK Ramos cellular assay (BTK occupancy); assay type: cell-based; conditions: concentration producing 50% occupancy of BTK, 1 hour incubation with compound
T2 construct: Compounds of this invention were assayed in Ramos human Burkitt lymphoma cells; endogenous in cells; host or cells: Ramos human Burkitt lymphoma cells
Method: BTK activity in Ramos cells, in the presence of a compound of the invention, can be measured by 3 different methods: 1) inhibition of autophosphorylation of BTK; 2) inhibition of phosphorylation of the immediate BTK surrogate PLCγ2; and 3) BTK occupancy. […] In this instance, BTK occupancy was chosen and is described below.
Compounds of this invention were assayed in Ramos human Burkitt lymphoma cells. Ramos cells were grown in suspension in T175 flasks, spun down, resuspended to a concentration of 2×10^6 cells per mL in serum-free media and incubated for 1 hour. Compound was added to Ramos cells to a final concentration of 500, 166.7, 55.6, 18.5, 6.2, 2.1, and 0.7 nM. Ramos cells were incubated with compound for 1 hour, washed with PBS and lysed in 1004 of BioRad lysis Buffer. Cell lysates were incubated with a biotinylated covalent probe (compound 1-215 disclosed in U.S. published application number 2010/0029610, incorporated by reference in its entirety) at a final concentration of 1 μM in a PBS, 0.05% Tween-20, 1% BSA solution for 1 h at room temperature. Standards and samples were transferred to a streptavidin-coated 96-well ELISA plate and mixed while shaking for 1 h at room temperature. The α-Btk antibody (BD 611116, 1:1000 dilution in PBS+0.05% Tween-20+0.5% BSA) was then added and incubated for 1 h at room temperature. After wash, goat α-mouse-HRP (1:5000 dilution in PBS+0.05% Tween-20+0.5% BSA) was added and incubated for 1 h at room temperature. The ELISA was developed with addition of tetramethyl benzidine (TMB) followed by Stop Solution and read at OD 450 nm. The standard curve (11.7-3000 pg/μL) was generated with human full-length recombinant Btk protein and plotted using a 4 parameter curve fit in Gen5 software. Uninhibited Btk detected from samples was normalized to μg total protein as determined by BCA protein analysis (Pierce Cat. 23225).
The results of this assay show the concentration of compound producing 50% occupancy of BTK. This level of occupancy empirically translates to a level of 50% inhibition of BTK activity (both as measured by autophosphorylation and by phosphorylation of PLCγ2). […] The compound numbers correspond to the compound numbers in the examples.

T2 sequence (Q06187 whole entry): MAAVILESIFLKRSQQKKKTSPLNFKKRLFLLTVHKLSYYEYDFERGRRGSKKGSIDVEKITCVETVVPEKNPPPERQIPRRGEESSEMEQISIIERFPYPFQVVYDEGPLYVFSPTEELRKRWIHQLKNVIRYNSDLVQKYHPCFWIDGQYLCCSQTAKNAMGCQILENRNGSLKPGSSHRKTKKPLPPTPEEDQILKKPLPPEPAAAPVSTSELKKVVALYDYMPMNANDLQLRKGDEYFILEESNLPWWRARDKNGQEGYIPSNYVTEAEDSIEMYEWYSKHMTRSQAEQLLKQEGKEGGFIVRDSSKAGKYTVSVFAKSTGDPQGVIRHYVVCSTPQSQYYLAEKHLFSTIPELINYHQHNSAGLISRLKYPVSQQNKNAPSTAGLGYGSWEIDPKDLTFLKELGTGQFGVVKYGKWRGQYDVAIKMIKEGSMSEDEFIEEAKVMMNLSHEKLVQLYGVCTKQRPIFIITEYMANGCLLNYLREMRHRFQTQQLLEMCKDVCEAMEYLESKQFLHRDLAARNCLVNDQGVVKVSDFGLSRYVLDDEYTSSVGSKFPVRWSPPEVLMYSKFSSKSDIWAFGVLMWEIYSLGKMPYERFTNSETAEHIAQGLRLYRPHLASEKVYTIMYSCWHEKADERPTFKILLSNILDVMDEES
T1 sequence (Q06187 whole entry): as above

| Structure (SMILES) | IC50 (activated BTK enzyme) [nM] | EC50 [1] [nM] | melting point [°C] |
| --- | --- | --- | --- |
| C=CC(=O)N1CCC[C@@H](Nc2nc(Nc3ccc4c(c3)CN(C)C4=O)ncc2F)C1 [Compound I-61, (R)-5-(4-(1-Acryloylpiperidin-3-ylamino)-5-fluoropyrimidin-2-ylamino)-2-methylisoindolin-1-one] | < 10 | 10 to 100 | 120 to 122 |
| C=CC(=O)N1CCC[C@@H](Nc2nc(Nc3ccc4c(c3)CCN(C(C)(C)C)C4)ncc2F)C1 [Compound I-45, (R)-1-(3-((2-((2-(tert-Butyl)-1,2,3,4-tetrahydroisoquinolin-6-yl)amino)-5-fluoropyrimidin-4-yl)amino)piperidin-1-yl)prop-2-en-1-one] | < 10 | < 10 | – |
| C=CC(=O)N1CCC[C@@H](Nc2nc(Nc3ccc4c(c3)CN(C3(C)CCOCC3)C4)ncc2F)C1 [Compound I-40, (R)-1-(3-(5-Fluoro-2-(2-(4-methyltetrahydro-2H-pyran-4-yl)isoindolin-5-ylamino)pyrimidin-4-ylamino)piperidin-1-yl)prop-2-en-1-one] | < 10 | < 10 | – |
| C=CC(=O)N1CCC[C@@H](Nc2nc(Nc3ccc4c(c3)CN(C(C)(C)C)C4)ncc2F)C1 [Compound I-25, (R)-1-(3-((2-((2-(tert-butyl)isoindolin-5-yl)amino)-5-fluoropyrimidin-4-yl)amino)piperidin-1-yl)prop-2-en-1-one] | < 10 | < 10 | – |
| C=CC(=O)N1CCC[C@@H](Nc2nc(Nc3ccc4c(c3)CN(CCO)C4)ncc2F)C1 [Compound I-23, (R)-1-(3-((5-fluoro-2-((2-(2-hydroxyethyl)isoindolin-5-yl)amino)pyrimidin-4-yl)amino)piperidin-1-yl)prop-2-en-1-one] | < 10 | < 10 | – |
| C=CC(=O)N1CCC[C@@H](Nc2nc(Nc3ccc4c(c3)CN(c3ccc(F)cc3)C4)ncc2F)C1 [Compound I-24, (R)-1-(3-((5-fluoro-2-((2-(4-fluorophenyl)isoindolin-5-yl)amino)pyrimidin-4-yl)amino)piperidin-1-yl)prop-2-en-1-one] | < 10 | 101 to 1000 | – |
| C=CC(=O)N1CCC[C@@H](Nc2nc(Nc3ccc4c(c3)CN(CC3COC3)CC4)ncc2F)C1 [Compound I-36, (R)-1-(3-(5-Fluoro-2-(2-(oxetan-3-ylmethyl)-1,2,3,4-tetrahydroisoquinolin-7-ylamino)pyrimidin-4-ylamino)piperidin-1-yl)prop-2-en-1-one] | < 10 | < 10 | – |
| C=CC(=O)N1CCC[C@@H](Nc2nc(Nc3ccc4c(c3)CN(CC3CCOCC3)C4)ncc2F)C1 [Compound I-11, (R)-1-(3-(5-Fluoro-2-(2-((tetrahydro-2H-pyran-4-yl)methyl)isoindolin-5-ylamino)pyrimidin-4-ylamino)piperidin-1-yl)prop-2-en-1-one] | < 10 | < 10 | – |
| C=CC(=O)N1CCC[C@@H](Nc2nc(Nc3ccc4c(c3)CCNC4)ncc2F)C1 [Compound I-27, (R)-1-(3-((5-fluoro-2-((1,2,3,4-tetrahydroisoquinolin-6-yl)amino)pyrimidin-4-yl)amino)piperidin-1-yl)prop-2-en-1-one] | < 10 | 10 to 100 | – |
| C=CC(=O)N1CCC[C@@H](Nc2nc(Nc3ccc4c(c3)C(=O)N(C)C4)ncc2F)C1 [Compound I-62] | < 10 | 101 to 1000 | – |
| C=CC(=O)N1CCC[C@@H](Nc2nc(Nc3ccc4c(c3)CN(C(C)=O)C4)ncc2F)C1 [Compound I-3, (R)-1-(3-((2-((2-Acetylisoindolin-5-yl)amino)-5-fluoropyrimidin-4-yl)amino)-piperidin-1-yl)prop-2-en-1-one] | < 10 | 101 to 1000 | – |
| C=CC(=O)N1CCC[C@@H](Nc2nc(Nc3ccc4c(c3)CNCCC4)ncc2F)C1 [Compound I-53, (R)-1-(3-(5-Fluoro-2-(2,3,4,5-tetrahydro-1H-benzo[c]azepin-8-ylamino)pyrimidin-4-ylamino)piperidin-1-yl)prop-2-en-1-one] | < 10 | < 10 | – |

Second part, the molecule after the results:

| IC50 (activated BTK enzyme) [nM] | EC50 [1] [nM] | melting point [°C] | Structure (SMILES) |
| --- | --- | --- | --- |
| < 10 | < 10 | 102 to 104 | C=CC(=O)N1CCC[C@@H](Nc2nc(Nc3ccc4c(c3)CCN(C)CC4)ncc2F)C1 [Compound I-58, (R)-1-(3-(5-Fluoro-2-(3-methyl-2,3,4,5-tetrahydro-1H-benzo[d]azepin-7-ylamino)pyrimidin-4-ylamino)piperidin-1-yl)prop-2-en-1-one] |
| < 10 | 10 to 100 | – | C=CC(=O)N1CCC[C@@H](Nc2nc(Nc3ccc4c(c3)CN(CC3CCN(C(C)=O)CC3)C4)ncc2F)C1 [Compound I-10] |
| < 10 | 10 to 100 | – | C=CC(=O)N1CCC[C@@H](Nc2nc(Nc3ccc4c(c3)CN(C3CCN(C)CC3)C4)ncc2F)C1 [Compound I-7, (R)-1-(3-((5-Fluoro-2-((2-(1-methylpiperidin-4-yl)isoindolin-5-yl)amino)-pyrimidin-4-yl)amino)piperidin-1-yl)prop-2-en-1-one] |
| < 10 | < 10 | – | C=CC(=O)N1CCC[C@@H](Nc2nc(Nc3ccc4c(c3)CN(C3COC3)CC4)ncc2F)C1 [Compound I-35, (R)-1-(3-(5-Fluoro-2-(2-(oxetan-3-yl)-1,2,3,4-tetrahydroisoquinolin-7-ylamino)-pyrimidin-4-ylamino)piperidin-1-yl)prop-2-en-1-one] |
| < 10 | < 10 | – | C=CC(=O)N1CCC[C@@H](Nc2nc(Nc3ccc4c(c3)CCN(C3COC3)C4)ncc2F)C1 [Compound I-31, (R)-1-(3-(5-Fluoro-2-(2-(oxetan-3-yl)-1,2,3,4-tetrahydroisoquinolin-6-ylamino)-pyrimidin-4-ylamino)piperidin-1-yl)prop-2-en-1-one] |
| < 10 | < 10 | – | C=CC(=O)N1CCC[C@@H](Nc2nc(Nc3ccc4c(c3)CCCN(C)C4)ncc2F)C1 [Compound I-38, (R)-1-(3-((5-Fluoro-2-((2-methyl-2,3,4,5-tetrahydro-1H-benzo[c]azepin-7-yl)amino)pyrimidin-4-yl)amino)piperidin-1-yl)prop-2-en-1-one] |
| < 10 | 10 to 100 | – | C=CC(=O)N1CCC[C@@H](Nc2nc(Nc3ccc4c(c3)CCCN(C3CC3)C4)ncc2F)C1 [Compound I-51, (R)-1-(3-((2-((2-Cyclopropyl-2,3,4,5-tetrahydro-1H-benzo[c]azepin-7-yl)amino)-5-fluoropyrimidin-4-yl)amino)piperidin-1-yl)prop-2-en-1-one] |
| < 10 | < 10 | – | C=CC(=O)N1CCC[C@@H](Nc2nc(Nc3ccc4c(c3)CN(C3CCC3)C4)ncc2F)C1 [Compound I-18, (R)-1-(3-((2-((2-Cyclobutylisoindolin-5-yl)amino)-5-fluoropyrimidin-4-yl)amino)piperidin-1-yl)prop-2-en-1-one] |
